Laboratory results: publication PMC4664946, “The standalone aminopeptidase PepN catalyzes the maturation of blasticidin S from leucylblasticidin S” (Scientific Reports, 2015)

Columns and labels:
[1] = molecular target: T1, PepN1 (Streptomyces lividans, UniProt Q11010); assay: HPLC (UV […] nm) of hydrolysis to blasticidin S; type: biochemical; conditions: pH 5 to 9 tested; 30 °C; hydrolysis of the beta-amide bond to leucine
T1 construct: gene pepN; closely located to PepN2 gene
T1 sequence (Q11010 1-857): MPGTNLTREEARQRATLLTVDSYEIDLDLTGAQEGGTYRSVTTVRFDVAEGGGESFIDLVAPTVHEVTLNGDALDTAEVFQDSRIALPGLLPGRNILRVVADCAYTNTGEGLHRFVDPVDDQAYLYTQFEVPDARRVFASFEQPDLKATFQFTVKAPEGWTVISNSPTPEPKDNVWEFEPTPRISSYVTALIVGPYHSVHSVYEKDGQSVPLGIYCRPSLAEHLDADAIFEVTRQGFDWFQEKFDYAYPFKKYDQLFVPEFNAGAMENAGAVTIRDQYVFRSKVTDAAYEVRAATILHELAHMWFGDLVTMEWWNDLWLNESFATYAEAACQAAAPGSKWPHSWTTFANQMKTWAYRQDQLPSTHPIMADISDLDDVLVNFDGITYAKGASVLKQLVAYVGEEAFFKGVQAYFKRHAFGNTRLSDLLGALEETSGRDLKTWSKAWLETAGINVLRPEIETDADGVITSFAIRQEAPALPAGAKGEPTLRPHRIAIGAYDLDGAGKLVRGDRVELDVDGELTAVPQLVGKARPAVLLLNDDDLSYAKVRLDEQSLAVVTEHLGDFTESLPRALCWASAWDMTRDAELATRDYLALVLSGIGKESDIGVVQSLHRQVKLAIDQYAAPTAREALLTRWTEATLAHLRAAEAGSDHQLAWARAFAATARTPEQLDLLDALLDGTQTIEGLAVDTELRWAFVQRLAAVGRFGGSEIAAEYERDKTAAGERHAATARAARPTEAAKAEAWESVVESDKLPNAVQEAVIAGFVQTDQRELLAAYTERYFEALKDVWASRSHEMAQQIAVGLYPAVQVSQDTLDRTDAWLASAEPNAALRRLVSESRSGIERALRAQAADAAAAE

[2] = molecular target: T2, PepN (Escherichia coli, UniProt P04825); assay: HPLC (UV […] nm) of hydrolysis to blasticidin S; type: biochemical; conditions: 30 °C; 1 μM LBS overnight; pH 5 to 9 tested
T2 sequence (P04825 2-870): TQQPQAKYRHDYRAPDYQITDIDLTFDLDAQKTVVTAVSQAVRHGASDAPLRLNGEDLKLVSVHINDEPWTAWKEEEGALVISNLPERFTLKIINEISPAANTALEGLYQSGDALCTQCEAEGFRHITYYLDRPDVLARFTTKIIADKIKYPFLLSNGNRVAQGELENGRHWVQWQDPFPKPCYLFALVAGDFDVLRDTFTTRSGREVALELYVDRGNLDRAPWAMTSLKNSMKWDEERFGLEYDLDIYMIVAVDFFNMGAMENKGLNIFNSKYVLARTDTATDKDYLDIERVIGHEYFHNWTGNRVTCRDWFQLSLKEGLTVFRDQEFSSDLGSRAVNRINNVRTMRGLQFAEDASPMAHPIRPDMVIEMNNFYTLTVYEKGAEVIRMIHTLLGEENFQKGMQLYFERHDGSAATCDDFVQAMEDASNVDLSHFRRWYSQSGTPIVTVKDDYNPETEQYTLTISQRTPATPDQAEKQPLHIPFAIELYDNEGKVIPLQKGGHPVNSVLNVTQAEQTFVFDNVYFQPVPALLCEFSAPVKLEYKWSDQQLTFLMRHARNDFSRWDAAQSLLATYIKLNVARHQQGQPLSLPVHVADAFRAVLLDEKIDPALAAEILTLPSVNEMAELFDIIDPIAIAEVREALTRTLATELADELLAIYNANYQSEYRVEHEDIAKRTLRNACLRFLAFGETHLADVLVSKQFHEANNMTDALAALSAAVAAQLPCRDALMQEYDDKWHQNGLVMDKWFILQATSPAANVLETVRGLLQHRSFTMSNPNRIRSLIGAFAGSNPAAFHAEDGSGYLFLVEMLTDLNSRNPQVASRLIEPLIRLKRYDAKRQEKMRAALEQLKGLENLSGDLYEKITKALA

## CC(C)C[C@H](N)C(=O)N[C@@H](CCN(C)C(=N)N)CC(=O)N[C@H]1C=C[C@H](n2ccc(N)nc2=O)O[C@@H]1C(=O)O [LBS, leucylblasticidin S]
[1]
  HPLC (UV 272 nm) of hydrolysis to blasticidin S: PepN and PepN1 exhibited similar LBS hydrolyzing efficiency
[2]
  HPLC (UV 272 nm) of hydrolysis to blasticidin S: PepN and PepN1 exhibited similar LBS hydrolyzing efficiency
